One assay has as its target T1, EGF-R (Homo sapiens, UniProt P00533).
T1 construct: made in house; host or cells: Sf9 insect cells (baculovirus)
The assay is described as follows: In vitro protein kinase assay (radioisotopic 33P, FlashPlate). In kind it is biochemical. Particulars: recombinant human kinase. On the procedure:
(§1) The effect of the thiazole derivatives was tested on recombinant, human protein kinases in in vitro protein kinase assays.
(§2) The protein kinases were expressed in Sf9 insect cells as human recombinant GST-fusion proteins or as His-tagged proteins by means of the baculovirus expression system.
(§3) The kinase activity was measured with a radioisotopic protein kinase assay by measuring the incorporation of ^33P-phosphate into proteins or peptide substrates. The assays were performed in FlashPlate™ microtiter scintillation plates and incorporation of ^33P-phosphate was determined with a microplate scintillation counter.

A further assay addresses T2, RET (Homo sapiens, UniProt P07949).
T2 construct: made in house; host or cells: Sf9 insect cells (baculovirus)
Described as above. Format: biochemical. To be noted: recombinant human kinase. On the procedure:
as §1, §2, §3

For a further assay, the target named is T3, Aurora A (Homo sapiens, UniProt O14965).
T3 construct: made in house; host or cells: Sf9 insect cells (baculovirus)
T3 sequence (O14965 1-403): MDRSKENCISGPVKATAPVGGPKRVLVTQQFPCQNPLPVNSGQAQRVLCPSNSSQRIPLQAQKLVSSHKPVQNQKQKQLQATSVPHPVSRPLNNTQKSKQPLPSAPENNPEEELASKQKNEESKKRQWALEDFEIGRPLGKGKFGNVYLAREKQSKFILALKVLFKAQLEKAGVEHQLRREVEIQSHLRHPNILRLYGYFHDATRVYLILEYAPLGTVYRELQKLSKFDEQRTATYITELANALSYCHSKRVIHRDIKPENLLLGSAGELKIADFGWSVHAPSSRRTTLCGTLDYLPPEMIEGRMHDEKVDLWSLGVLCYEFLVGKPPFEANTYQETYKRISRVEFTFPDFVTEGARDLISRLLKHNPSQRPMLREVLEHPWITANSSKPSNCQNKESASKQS
The assay is described as above. In kind it is biochemical. Particulars: recombinant human kinase. On the procedure: as §1, §2, §3

The target of the next assay is T4, VEGF-R3 (Homo sapiens, UniProt P35916).
T4 construct: made in house; host or cells: Sf9 insect cells (baculovirus)
Described as above. In kind it is biochemical. Particulars: recombinant human kinase. On the procedure:
as §1, §2, §3

The next assay deals with T5, TRK-A (Homo sapiens, UniProt P04629).
T5 construct: made in house; host or cells: Sf9 insect cells (baculovirus)
The description is as above. Particulars: recombinant human kinase. In kind it is biochemical. On the procedure: as §1, §2, §3

The next assay addresses T6, VEGF-R1 (Homo sapiens, UniProt P17948).
T6 construct: made in house; host or cells: Sf9 insect cells (baculovirus)
Described as above. Format: biochemical. Particulars: recombinant human kinase. On the procedure: as §1, §2, §3

A further assay concerns the target T7, FLT3 (Homo sapiens, UniProt P36888).
T7 construct: made in house; host or cells: Sf9 insect cells (baculovirus)
T7 sequence (P36888 27-993): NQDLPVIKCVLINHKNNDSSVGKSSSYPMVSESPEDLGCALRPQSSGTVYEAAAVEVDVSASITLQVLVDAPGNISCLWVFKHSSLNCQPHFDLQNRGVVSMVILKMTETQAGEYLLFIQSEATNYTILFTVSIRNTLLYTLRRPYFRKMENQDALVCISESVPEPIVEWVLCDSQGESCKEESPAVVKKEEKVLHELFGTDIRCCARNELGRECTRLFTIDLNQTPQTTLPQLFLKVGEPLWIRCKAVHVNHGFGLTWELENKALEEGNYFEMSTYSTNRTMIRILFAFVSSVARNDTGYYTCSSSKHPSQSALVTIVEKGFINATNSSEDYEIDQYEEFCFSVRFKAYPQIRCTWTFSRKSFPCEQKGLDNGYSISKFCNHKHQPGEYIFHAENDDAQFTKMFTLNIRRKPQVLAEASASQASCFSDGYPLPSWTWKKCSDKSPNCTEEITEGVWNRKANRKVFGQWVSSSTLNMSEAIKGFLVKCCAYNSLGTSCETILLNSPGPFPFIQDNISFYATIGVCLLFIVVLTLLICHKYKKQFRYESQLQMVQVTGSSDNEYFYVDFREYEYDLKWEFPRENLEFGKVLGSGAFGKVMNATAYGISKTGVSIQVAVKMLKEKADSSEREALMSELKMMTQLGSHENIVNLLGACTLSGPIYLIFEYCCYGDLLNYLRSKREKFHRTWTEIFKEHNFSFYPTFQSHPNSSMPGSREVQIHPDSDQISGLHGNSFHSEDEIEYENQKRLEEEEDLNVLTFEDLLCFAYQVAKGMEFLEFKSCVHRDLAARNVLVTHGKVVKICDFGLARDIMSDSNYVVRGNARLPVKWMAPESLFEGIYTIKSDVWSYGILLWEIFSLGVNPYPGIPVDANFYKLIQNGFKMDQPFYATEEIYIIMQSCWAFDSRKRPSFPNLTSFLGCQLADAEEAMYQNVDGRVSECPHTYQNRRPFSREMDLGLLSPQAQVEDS
The description is as above. In kind it is biochemical. To be noted: recombinant human kinase. On the procedure:
as §1, §2, §3

The target of another assay is T8, TIE2 (Homo sapiens, UniProt Q02763).
T8 construct: made in house; host or cells: Sf9 insect cells (baculovirus)
The description is as above. In kind it is biochemical. Particulars: recombinant human kinase. On the procedure:
as §1, §2, §3

Another assay has as its target T9, IRAK4 (Homo sapiens, UniProt Q9NWZ3).
T9 construct: made in house; host or cells: Sf9 insect cells (baculovirus)
T9 sequence (Q9NWZ3 1-460): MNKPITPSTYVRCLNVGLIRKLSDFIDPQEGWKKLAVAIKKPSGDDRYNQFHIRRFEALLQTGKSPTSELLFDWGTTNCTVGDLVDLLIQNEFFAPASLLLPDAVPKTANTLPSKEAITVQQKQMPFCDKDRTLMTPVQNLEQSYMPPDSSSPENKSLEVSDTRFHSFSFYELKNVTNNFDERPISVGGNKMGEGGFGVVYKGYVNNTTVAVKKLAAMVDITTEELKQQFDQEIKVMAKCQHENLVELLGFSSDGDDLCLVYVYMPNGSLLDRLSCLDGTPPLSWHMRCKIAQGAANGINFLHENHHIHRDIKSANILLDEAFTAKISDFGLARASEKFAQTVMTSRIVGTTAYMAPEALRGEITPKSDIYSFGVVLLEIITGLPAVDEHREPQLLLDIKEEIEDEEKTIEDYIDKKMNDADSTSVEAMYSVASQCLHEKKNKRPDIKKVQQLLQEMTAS
The description is as above. In kind it is biochemical. Particulars: recombinant human kinase. On the procedure: as §1, §2, §3

The target in a further assay is T10, LCK (Homo sapiens, UniProt P06239).
T10 construct: made in house; host or cells: Sf9 insect cells (baculovirus)
The assay is described as above. Format: biochemical. Particulars: recombinant human kinase. On the procedure:
as §1, §2, §3

A further assay addresses T11, KIT (Homo sapiens, UniProt P10721).
T11 construct: made in house; host or cells: Sf9 insect cells (baculovirus)
Described as above. To be noted: recombinant human kinase. In kind it is biochemical. On the procedure:
as §1, §2, §3

The next assay deals with T12, PDGF-Rα (Homo sapiens, UniProt P16234).
T12 construct: made in house; host or cells: Sf9 insect cells (baculovirus)
Described as above. Format: biochemical. To be noted: recombinant human kinase. On the procedure: as §1, §2, §3

For assay [1], the target named is T13, PDGF-Rβ (Homo sapiens, UniProt P09619). Described as above. Format: biochemical. More on the design: made in house; host or cells: Sf9 insect cells (baculovirus). To be noted: recombinant human kinase. On the procedure:
as §1, §2, §3

For assay [2], the target named is T14, VEGF-R2 (Homo sapiens, UniProt P35968). Described as above. Format: biochemical. More on the design: made in house; host or cells: Sf9 insect cells (baculovirus). Particulars: recombinant human kinase. On the procedure: as §1, §2, §3
Target sequence in this assay (P35968 20-1356): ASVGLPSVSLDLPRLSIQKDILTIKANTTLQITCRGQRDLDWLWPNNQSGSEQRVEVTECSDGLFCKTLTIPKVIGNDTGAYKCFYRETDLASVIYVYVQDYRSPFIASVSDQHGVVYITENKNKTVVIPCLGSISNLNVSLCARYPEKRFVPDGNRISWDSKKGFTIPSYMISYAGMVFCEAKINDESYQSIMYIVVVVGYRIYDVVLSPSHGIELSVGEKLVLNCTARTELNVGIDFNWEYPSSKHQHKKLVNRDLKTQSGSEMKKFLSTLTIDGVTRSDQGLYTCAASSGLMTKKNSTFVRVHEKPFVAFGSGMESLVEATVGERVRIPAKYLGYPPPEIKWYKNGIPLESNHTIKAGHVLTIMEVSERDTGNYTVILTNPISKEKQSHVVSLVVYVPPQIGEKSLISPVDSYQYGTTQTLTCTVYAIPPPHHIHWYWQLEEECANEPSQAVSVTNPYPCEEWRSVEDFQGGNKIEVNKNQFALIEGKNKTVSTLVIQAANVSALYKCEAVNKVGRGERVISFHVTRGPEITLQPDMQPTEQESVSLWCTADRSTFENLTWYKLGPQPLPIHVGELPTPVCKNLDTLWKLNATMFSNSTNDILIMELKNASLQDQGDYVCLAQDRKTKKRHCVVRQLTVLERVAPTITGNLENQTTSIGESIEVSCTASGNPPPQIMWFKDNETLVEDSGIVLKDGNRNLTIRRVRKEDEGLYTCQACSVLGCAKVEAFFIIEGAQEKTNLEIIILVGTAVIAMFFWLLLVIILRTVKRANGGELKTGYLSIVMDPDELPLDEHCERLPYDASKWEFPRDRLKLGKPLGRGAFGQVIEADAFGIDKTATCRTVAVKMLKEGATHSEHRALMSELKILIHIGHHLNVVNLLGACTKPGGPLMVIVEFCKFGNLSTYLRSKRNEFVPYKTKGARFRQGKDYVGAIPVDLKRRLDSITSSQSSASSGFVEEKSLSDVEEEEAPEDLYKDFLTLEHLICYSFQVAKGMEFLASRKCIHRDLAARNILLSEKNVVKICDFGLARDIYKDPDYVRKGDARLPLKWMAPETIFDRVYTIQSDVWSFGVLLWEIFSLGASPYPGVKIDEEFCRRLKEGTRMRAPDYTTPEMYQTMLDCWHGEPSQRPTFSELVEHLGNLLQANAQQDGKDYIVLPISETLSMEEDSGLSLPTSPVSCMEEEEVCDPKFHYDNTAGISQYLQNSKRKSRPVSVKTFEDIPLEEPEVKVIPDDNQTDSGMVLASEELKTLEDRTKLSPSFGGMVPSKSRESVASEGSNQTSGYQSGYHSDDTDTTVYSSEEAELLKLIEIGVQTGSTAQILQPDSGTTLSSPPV
Assay [3] deals with T15, Aurora B (Homo sapiens, UniProt Q96GD4). The assay is described as above. More on the design: made in house; host or cells: Sf9 insect cells (baculovirus). To be noted: recombinant human kinase. Format: biochemical. On the procedure: as §1, §2, §3
Assay [4] has as its target T15, Aurora B. The assay is described as follows: Cellular Aurora-B Kinase Assay (endoreduplication of genomic DNA, PI/FACS). To be noted: HT29 colon-carcinoma cells, 3 days treatment, EndoR-population. Format: cell-based. More on the design: endogenous in cells; host or cells: HT29 colon carcinoma cells. On the procedure:
The effect of thiazole derivatives was tested in a cellular Aurora-B assay by measuring the effect of the test compounds on the endoreduplication (EndoR) of genomic DNA. Endoreduplication is detectable in cells as DNA-content higher then 4 n. Propidium Iodine (PI) was used to quantify the DNA content using a fluorescence activated cell sorter (FACS).
In the experiment, HT29 colon-carcinoma cells were treated with test compounds at different concentrations for 3 days. On day 5 cells were harvested and fixed in methanol. On day 6 cells were rehydrated and incubated with RNAse A and PI. Incorporated PI was detected by FACS measuring fluorescence emission at 650 nm upon excitation at 488 nm. For each compound concentration the percentage of EndoR-population as compared to the whole cell population was determined. For estimation of IC50 values of Aurora-B inhibition the percentages of EndoR-populations were plotted versus compound concentrations.

Assay [5] concerns the target T13, PDGF-Rβ. Briefly: Cellular Receptor Tyrosine Kinase Assay (autophosphorylation, sandwich ELISA). Format: cell-based. The arrangement: host or cells: unnamed cell line. To be noted: ligand-induced receptor autophosphorylation in cells. On the procedure: (§4) The effect of thiazole derivatives was tested by determining the inhibition of different receptor tyrosine kinases (RTKs) in various cell lines which expressed the following growth factor receptors: EGF-R, PDGF-R, TIE2, IGF-1R, EPHB4, and VEGF-R2. Receptor autophosphorylation was induced by specific ligands for each receptor. […] Test compounds were applied to cells prior to stimulation. Cells were lysed using a standard lysis buffer preserving the distinct phosphoprotein levels. RTK-phosphorylation was quantified via sandwich ELISA using receptor-specific capture antibodies and a phosphotyrosine antibody.
(§5) Sigmoidal inhibitor curves based on relative inhibition compared with phosphorylation levels under high control conditions were generated which allowed the determination of IC50 values for each test compound.
(In general: An ELISA detects its analyte on a solid surface through an enzyme-linked reagent.)

The target of assay [6] is T14, VEGF-R2. Described as above. Format: cell-based. More on the design: host or cells: unnamed cell line. To be noted: ligand-induced receptor autophosphorylation in cells. On the procedure:
as §4, §5
Target sequence in this assay (P35968 20-1356, species assumed): as the sequence (P35968 20-1356) above

From US20070149523A1, “Thiazole Analogues and Uses Thereof” (priority 2005, published 2007) come the findings set out here.

T15 sequence (Q96GD4 whole entry): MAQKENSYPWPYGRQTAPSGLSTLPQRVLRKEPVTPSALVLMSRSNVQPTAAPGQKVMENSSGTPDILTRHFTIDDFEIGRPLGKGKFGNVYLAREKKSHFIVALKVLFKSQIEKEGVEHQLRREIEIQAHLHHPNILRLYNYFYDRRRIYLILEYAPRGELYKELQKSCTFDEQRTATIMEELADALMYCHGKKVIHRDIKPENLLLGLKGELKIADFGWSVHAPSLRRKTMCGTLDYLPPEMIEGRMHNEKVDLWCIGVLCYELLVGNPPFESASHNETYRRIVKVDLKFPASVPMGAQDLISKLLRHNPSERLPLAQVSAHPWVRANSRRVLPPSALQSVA
T8 sequence (Q02763 23-1124): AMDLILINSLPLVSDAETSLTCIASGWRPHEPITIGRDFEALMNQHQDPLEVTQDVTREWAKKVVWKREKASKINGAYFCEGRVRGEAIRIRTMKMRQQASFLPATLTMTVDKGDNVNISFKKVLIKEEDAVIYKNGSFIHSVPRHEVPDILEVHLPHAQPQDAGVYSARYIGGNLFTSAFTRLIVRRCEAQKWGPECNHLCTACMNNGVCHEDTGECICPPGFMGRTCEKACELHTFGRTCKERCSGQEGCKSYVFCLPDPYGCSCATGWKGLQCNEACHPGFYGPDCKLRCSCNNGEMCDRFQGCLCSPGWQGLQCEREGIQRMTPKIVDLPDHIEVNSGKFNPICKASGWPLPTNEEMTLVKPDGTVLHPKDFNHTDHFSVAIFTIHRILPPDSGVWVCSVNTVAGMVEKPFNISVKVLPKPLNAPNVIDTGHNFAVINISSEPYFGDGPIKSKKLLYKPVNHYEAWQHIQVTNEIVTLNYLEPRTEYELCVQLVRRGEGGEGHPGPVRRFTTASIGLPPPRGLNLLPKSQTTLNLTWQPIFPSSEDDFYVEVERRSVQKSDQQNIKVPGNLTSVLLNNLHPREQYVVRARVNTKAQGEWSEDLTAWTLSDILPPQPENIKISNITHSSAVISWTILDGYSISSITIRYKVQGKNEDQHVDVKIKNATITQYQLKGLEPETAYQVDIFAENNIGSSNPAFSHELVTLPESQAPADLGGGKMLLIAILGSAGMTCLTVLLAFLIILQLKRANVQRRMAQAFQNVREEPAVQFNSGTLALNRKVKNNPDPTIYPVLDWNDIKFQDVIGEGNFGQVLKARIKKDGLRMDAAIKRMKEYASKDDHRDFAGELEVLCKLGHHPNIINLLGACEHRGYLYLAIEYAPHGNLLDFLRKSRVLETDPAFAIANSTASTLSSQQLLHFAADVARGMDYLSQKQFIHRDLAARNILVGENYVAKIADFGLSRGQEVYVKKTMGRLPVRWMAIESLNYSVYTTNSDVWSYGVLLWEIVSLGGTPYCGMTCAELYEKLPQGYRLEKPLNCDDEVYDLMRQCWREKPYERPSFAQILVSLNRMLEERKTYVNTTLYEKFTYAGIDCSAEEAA
T4 sequence (P35916 25-1363): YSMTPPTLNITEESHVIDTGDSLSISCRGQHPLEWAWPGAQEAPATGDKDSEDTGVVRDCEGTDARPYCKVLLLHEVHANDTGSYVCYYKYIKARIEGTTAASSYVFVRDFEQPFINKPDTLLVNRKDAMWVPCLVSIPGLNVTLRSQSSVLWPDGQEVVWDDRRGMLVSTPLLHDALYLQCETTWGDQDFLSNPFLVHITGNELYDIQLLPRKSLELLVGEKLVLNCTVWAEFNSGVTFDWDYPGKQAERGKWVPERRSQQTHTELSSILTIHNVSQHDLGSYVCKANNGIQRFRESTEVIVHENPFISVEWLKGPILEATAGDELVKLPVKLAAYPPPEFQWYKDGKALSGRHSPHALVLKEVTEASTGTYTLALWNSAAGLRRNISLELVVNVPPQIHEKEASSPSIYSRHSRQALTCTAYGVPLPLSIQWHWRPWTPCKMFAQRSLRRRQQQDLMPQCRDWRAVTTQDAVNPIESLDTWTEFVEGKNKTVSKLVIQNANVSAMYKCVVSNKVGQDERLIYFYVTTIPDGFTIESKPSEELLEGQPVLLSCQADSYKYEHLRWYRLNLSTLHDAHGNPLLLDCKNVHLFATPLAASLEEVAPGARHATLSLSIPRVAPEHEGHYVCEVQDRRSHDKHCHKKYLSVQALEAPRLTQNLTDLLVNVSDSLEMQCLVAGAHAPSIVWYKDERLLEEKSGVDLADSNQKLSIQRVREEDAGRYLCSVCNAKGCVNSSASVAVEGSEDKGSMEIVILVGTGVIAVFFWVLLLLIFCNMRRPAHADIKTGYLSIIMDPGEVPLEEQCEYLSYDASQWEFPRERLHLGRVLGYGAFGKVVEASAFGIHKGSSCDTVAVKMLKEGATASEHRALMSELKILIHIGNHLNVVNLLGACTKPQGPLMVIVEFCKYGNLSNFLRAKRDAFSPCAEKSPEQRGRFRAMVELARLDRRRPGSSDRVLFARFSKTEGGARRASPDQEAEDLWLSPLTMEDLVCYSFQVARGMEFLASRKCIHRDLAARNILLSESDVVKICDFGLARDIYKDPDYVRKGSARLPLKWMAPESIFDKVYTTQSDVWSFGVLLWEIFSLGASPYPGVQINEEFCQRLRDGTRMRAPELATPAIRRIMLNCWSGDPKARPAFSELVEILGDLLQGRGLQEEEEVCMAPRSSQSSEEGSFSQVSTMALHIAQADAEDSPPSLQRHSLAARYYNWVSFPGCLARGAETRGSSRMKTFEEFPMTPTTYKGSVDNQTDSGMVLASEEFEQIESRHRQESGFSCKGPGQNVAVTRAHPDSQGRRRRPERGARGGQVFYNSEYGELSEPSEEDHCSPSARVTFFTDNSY
T5 sequence (P04629 33-796): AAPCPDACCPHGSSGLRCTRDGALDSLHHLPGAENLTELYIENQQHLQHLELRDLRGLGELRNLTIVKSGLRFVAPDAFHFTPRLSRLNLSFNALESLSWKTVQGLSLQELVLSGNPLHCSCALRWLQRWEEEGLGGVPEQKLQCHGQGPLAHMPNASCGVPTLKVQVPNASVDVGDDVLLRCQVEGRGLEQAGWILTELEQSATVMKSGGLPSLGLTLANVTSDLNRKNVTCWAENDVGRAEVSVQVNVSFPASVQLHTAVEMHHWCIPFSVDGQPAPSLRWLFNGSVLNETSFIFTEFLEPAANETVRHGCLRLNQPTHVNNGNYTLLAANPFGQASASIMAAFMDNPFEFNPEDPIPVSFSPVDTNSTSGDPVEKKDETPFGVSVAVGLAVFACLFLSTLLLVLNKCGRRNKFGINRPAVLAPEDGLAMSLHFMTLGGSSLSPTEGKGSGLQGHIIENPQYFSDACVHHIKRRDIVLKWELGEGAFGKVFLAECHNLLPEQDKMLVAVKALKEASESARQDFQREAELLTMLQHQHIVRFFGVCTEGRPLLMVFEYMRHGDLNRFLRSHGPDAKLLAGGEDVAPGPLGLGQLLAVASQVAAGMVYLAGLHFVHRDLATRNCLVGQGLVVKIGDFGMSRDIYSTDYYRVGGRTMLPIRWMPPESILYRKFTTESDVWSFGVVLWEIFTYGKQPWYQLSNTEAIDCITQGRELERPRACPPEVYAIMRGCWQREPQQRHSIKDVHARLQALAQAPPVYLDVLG

A word on the IC50: it is the point on the concentration scale where inhibition reaches its midpoint. As to `COc1cc2c(Nc3ncc(CCC(=O)Nc4ccc(F)cc4)s3)ncnc2cc1OCCCN1CCCC1` [Compound 9, N-(4-fluorophenyl)-3-(2-(6-methoxy-7-(3-(pyrrolidin-1-yl)propoxy)quinazolin-4-ylamino)thiazol-5-yl)propanamide], the IC50 at EGF-R was found to be 10 µM; on RET, 0.88 µM; at Aurora A, 0.71 µM; at VEGF-R3, 0.11 µM; at TRK-A it was 0.43 µM; at VEGF-R1 it was 0.64 µM. The IC50 on FLT3 came out at 0.6 µM; at TIE2 it was 0.43 µM; on IRAK4, 2.2 µM; at LCK, 2.3 µM; at KIT it was 0.11 µM; on PDGF-Rα it was 1 µM. For the same compound, the values for the IC50 at PDGF-Rβ [1], at VEGF-R2 [2] and on Aurora B [3] were 1.1 µM, 0.096 µM and 0.47 µM, respectively.

`COc1cc2c(Nc3ncc(CCNC(=O)c4cccc(F)c4)s3)ncnc2cc1OCCCN1CCCC1` [Compound 1, 3-fluoro-N-(2-{2-[6-methoxy-7-(3-pyrrolidin-1-yl-propoxy)-quinazolin-4-ylamino]-thiazol-5-yl}-ethyl)-benzamide]: the IC50 on Aurora B [4] amounted to 1.1 µM; at PDGF-Rβ [5] it was 1.1 µM; on VEGF-R2 [6], 14 µM; at Aurora A, 0.1 µM; on VEGF-R3, 2.2 µM; at FLT3 it was 5.5 µM. The IC50 at TIE2 turned out to be 0.9 µM; on PDGF-Rβ [1], 11 µM; on VEGF-R2 [2] it was 2.6 µM; on Aurora B [3], 0.36 µM.
